Entries after “also recorded” stand apart in the source; their conditions may differ. Values belong to the compound of their own block, whether it stands above or below them.
What was measured:
[1] = tested on: GFP-K-Ras in Jurkat T cells; experiment: Subcellular localization of GFP-K-Ras by fluorescence microscopy; type: cell-based; details: 0.1 μM, 24 hours
[2] = tested on: Erk phosphorylation in Jurkat T cells; experiment: Signaling assay: anti-CD-3ε dependent Erk phosphorylation; type: cell-based; details: 25 μM, 24 h, then anti-CD-3ε stimulation
[3] = tested on: Ras activation in Jurkat T cells; experiment: GST-RBD pull down assay of active GTP-bound Ras; type: cell-based; details: 25 μM, 24 h, then anti-CD-3ε stimulation
hIcmt [4] = molecular target: T1, hIcmt (Homo sapiens, UniProt O60725); experiment: Kinetic mode of inhibition and KI determination
T1 sequence (O60725 whole entry, the tested form may be a part): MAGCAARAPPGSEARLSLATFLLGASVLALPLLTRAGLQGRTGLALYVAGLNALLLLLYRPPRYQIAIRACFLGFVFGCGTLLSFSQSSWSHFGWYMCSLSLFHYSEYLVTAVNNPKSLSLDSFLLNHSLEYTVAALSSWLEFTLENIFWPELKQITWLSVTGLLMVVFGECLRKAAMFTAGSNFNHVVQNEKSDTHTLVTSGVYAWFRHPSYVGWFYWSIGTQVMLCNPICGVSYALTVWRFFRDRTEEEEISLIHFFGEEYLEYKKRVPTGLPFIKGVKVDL

hIcmt [5] = molecular target: T1, hIcmt; experiment: In vitro vapor diffusion methyltransferase assay, inhibition of hIcmt; type: biochemical; details: for Loss of inhibitory activity as compared to compound 1a: fold; for hIcmt inhibition (in words): 10 μM compound, 25 μM AFC
[6] = tested on: PC3 prostate cancer cells; details: cited from earlier work
hIcmt [7] = molecular target: T1, hIcmt; details: read-out: IC50 against hIcmt; previously reported; cited from earlier work

Ki (hIcmt [4]): 0.5 ± 0.07 µM
α value (hIcmt [4]; mixed-type inhibition, competitive component dominated): greater than 1
Compound: CC(C)=CC/C(=C/CSC[C@H](NC(=O)c1ccccc1Oc1ccccc1)C(=O)O)CCc1ccc(-c2ccccc2)cc1 [Compound 1b, N-2-Phenoxybenzoyl-S-3-(3-methyl-but-2-enyl)-5-(4-biphenyl)pent-2-enyl-L-cysteine]
Prevention of GFP-K-Ras membrane localization [1]: approximately 35%
Decrease of Erk activation compared to the control [2]: approximately three-fold
Ras activation [3]: inhibited Ras activation significantly
Mode of inhibition (hIcmt [4]; AFC varied, inhibitor concentration fixed): mixed-mode inhibition; also recorded: mixed-type inhibition

Loss of inhibitory activity as compared to compound 1a (hIcmt [5]): roughly four-fold
Compound: CC(C)=CCC/C(C)=C/CC/C(C)=C/CSC[C@H](NC(=O)c1ccccc1Cc1ccccc1)C(=O)O [Compound 2c, (R)-2-(2-benzylbenzamido)-3-(((2E,6E)-3,7,11-trimethyldodeca-2,6,10-trien-1-yl)thio)propanoic acid]

Loss of inhibitory activity as compared to compound 1a (hIcmt [5]): roughly four-fold
Compound: CC(C)=CCC/C(C)=C/CC/C(C)=C/CSC[C@H](NC(=O)c1ccccc1Sc1ccccc1)C(=O)O [Compound 2d, (R)-2-(2-(phenylthio)benzamido)-3-(((2E,6E)-3,7,11-trimethyldodeca-2,6,10-trien-1-yl)thio)propanoic acid]

The next lines start with the compound.

Compound: CC(C)=CCC/C(C)=C/CC/C(C)=C/CC/C(C)=C/CSC[C@H](NC(=O)c1ccccc1Oc1ccccc1)C(=O)O [Compound 19, (R)-2-(2-phenoxybenzamido)-3-(((2E,6E,10E)-3,7,11,15-tetramethylhexadeca-2,6,10,14-tetraen-1-yl)thio)propanoic acid]
hIcmt inhibition (in words) (hIcmt [5]): significant loss of hIcmt inhibition

Compound: CC(C)=CCC/C(C)=C/CC/C(C)=C/CSC[C@@H](C(=O)O)N(C)C(=O)c1ccccc1Oc1ccccc1 [Compound 20, (R)-2-(N-methyl-2-phenoxybenzamido)-3-(((2E,6E)-3,7,11-trimethyldodeca-2,6,10-trien-1-yl)thio)propanoic acid]
hIcmt inhibition (in words) (hIcmt [5]): equivalent to our previous lead, 1a, in terms of percent inhibition

Compound: CCCCCCCCCCCSC[C@H](NC(=O)c1ccccc1Oc1ccccc1)C(=O)O [Compound 21, ((R)-2-(2-phenoxybenzamido)-3-(undecylthio)propanoic acid)]
hIcmt inhibition (in words) (hIcmt [5]): particularly poor inhibitor of hIcmt

Compound: CCCCCCCCn1cc(CC(N)=O)c2cc(-c3cccc(C)c3)ccc21 [Cysmethynil]
Effect on PC3 prostate cancer cells [6]: induction of autophagic cell death

Compound: anthranilic farnesylcysteine [anthranilic acid analog]
IC50 (hIcmt [7]): 7.1 µM
